According to PubChem BioAssay (NCI):
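Results reflect a 48-hour exposure of cells in 96-well plates to compound at five concentrations. The concentration for full growth arrest is given as TGI.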

Key:
Assay in all cases: growth of human tumour cells (NCI), 48 h
[1] = tested on: MDA-MB-231 breast
[2] = tested on: SF-295 CNS
[3] = tested on: TK-10 renal
[4] = tested on: HCT-15 colon
[5] = tested on: HOP-92 NSCLC
[6] = tested on: OVCAR-5 ovarian
[7] = tested on: UACC-62 melanoma
[8] = tested on: SK-MEL-28 melanoma
[9] = tested on: CCRF-CEM leukemia
[10] = tested on: T-47D breast
[11] = tested on: NCI-H460 lung
[12] = tested on: NCI-H23 lung
[13] = tested on: MALME-3M melanoma
[14] = tested on: DU-145 prostate
[15] = tested on: SW-620 colon

SMILES	TGI [1] [µM]	TGI [2] [µM]	TGI [3] [µM]	TGI [4] [µM]	TGI [5] [µM]	TGI [6] [µM]	TGI [7] [µM]	TGI [8] [µM]	TGI [9] [µM]	TGI [10] [µM]	TGI [11] [µM]	TGI [12] [µM]	TGI [13] [µM]	TGI [14] [µM]	TGI [15] [µM]
CC(C)C(OC(=O)c1ccc(NCC2=CC(=O)C=CC2=O)cc1)C(C)C	31.8	29.4	14.4	10.4	4.67	36.4	20.3	15	2.36	7.45	32.6	20.2	25.1	65.5	27.4
CC(C)=CCCC(C)CCOS(=O)C(F)(F)F (stereo not given)	61.4	86.8	> 100	11.5	> 100	47.8	21.7	34.6	> 100	> 100	46.3	14	18.9	> 100	> 100
COc1ccccc1C(O)[C@@H]1C[C@@H]2[C@H]3CC[C@@](C)([C@@H]2O1)C3(C)C (stereo not given in full)	34.4	34.6	50.7	57.7	30.7	38.6	32.8	37.3	44.1	41.3	36.3	50.5	30.2	49.6	37.9
O=C1NN(Cc2ccccc2)C(=O)N2CCC[C@@H]12	> 100	> 100	> 100	> 100	> 100	> 100	> 100	> 100	> 100	> 100	> 100	> 100	> 100	> 100	> 100
C=CCOC(=O)C1=C(C)NC2=N[C@H](CCCCCCCCC)C[C@@H]3CCC1N23 (stereo not given in full)	41.7	> 100	39.4	56.2	38	48.2	35.6	53.6	> 100	60.2	72.6	41.8	35.7	67.8	> 100
O=[N+]([O-])c1ccc(-n2nc3ccc4c(no[n+]4[O-])c3n2)cc1	> 100	> 100	> 100	> 100	> 100	> 100	> 100	> 100	> 100	> 100	> 100	> 100	> 100	> 100	> 100
CCC1(c2ccc(N3C(=O)c4cc(OC)c(OC)cc4C3=O)cc2)CCC(=O)NC1=O (stereo not given)	> 10	> 10	> 10	> 10	> 10	> 10	> 10	> 10	> 10	> 10	> 10	> 10	> 10	> 10	> 10
COc1ccc2c(c1)CCCN1CCc3ccccc3C21 (stereo not given)	72.2	79.1	> 100	> 100	> 100	> 100	83.1	> 100	> 100	> 100	> 100	> 100	> 100	> 100	> 100
CC(=O)NCC1OC2COC(c3ccccc3)OC2C(NC(=O)c2ccccc2)C1OC(=O)c1ccccc1 (stereo not given)	> 100	> 100	> 100	> 100	> 100	> 100	> 100	> 100	> 100	> 100	> 100	> 100	> 100	> 100	> 100
O=C(/C=C/c1ccccc1)Nc1ccccc1SCCCCl	74.5	49.4	> 100	> 100	> 30.9	> 100	> 72.7	> 100	> 100	> 85.8	> 82.2	40.7	> 100	> 100	> 62.4
CC(=O)NNc1nc(C)c(C(/C=C/c2ccccc2O)=N/N=C(N)N)s1	> 100	> 100	> 100	> 100	> 100	> 100	> 100	> 100	> 100	> 100	> 100	> 100	> 100	> 100	> 100
